From patent publication US8334107B2, “Detection systems utilizing supported lipid bilayers” (priority 2005, dated 2012)

How the values were obtained:
[1] = test system: DMPG bilayer on PPE-coated beads; assay: Microfluidic assay: detection of lipid bilayer disruption by fluorescence superquenching; format: biochemical; conditions: injected as 1:1 mixture with 120 μM AQS
Procedure: The preparation of microcolumns with PPE-coated, silica beads was similar to that of with fluorescein containing beads. A 10 μL aliquot of 120 μM AQS was injected to the column. After a certain period of time, a 10 μL aliquot of 1:1 mixture of 120 μM AQS and 220 μM melittin was injected. During this process, the PPE-coated silica bead segment was irradiated at 488 nm and its fluorescence emission intensity was measured at 520 nm every 10 minutes. This experiment was repeated, while injecting 220 μM melittin first, and then 120 μM AQS.
The feasibility of using superquenching as a method of detecting membrane-toxin interactions in microcolumns was also investigated. The fluorescence intensity of the cationic polyelectrolyte poly(p-phenylene-ethynylene) polymer (PPE) can be super-quenched by the quencher 9,10-anthraquinone-2,6-disulfonic acid (AQS). […] It has been observed in flow cytometric studies that formation of DMPG membranes on PPE-coated beads will quench the PPE fluorescence to some extent. The initial rise in fluorescence intensity was probably due to the unquenching of the PPE, due to the removal of lipid bilayers from PPE-coated beads through melittin interaction, whereas the decrease in fluorescence corresponded to superquenching of PPE by AQS after disruption of DMPG bilayer by melittin. […]

[2] = test system: DMPG lipid bilayer on MS-PPE; assay: Disruption of DMPG lipid bilayer on MS-PPE detected by superquenching with AQS, flow cytometry; format: biochemical; conditions: 10 μM AQS; sMLT 3.8 μM, nMLT 1.6 μM
Procedure: Lipid bilayers were disrupted by adding Triton X-100® detergent to the bead suspension to a final concentration of 0.25% (w/v).
Bead suspensions of 2.5×10^5 PPE-coated microspheres in 200 μL PBS were analyzed using a FACScan flow cytometer (Becton-Dickinson, Sunnyvale, Calif.) with excitation at 488 nm. Fluorescence signals were acquired on the FL-1 channel (525 nm) using log amplification and analyzed with the CellQuest software.
(§1) Bead suspensions of 2.5×10^5 DMPG-coated MS-PPE in 200 μL of PBS were analyzed using a FACScan flow cytometer (Becton-Dickinson, Sunnyvale, Calif.) with excitation at 488 nm. Fluorescence signals were acquired on FL-1 channel (525 nm) using log amplification and analyzed with the CellQuest software. Kinetic analysis of disruption of supported lipid bilayer by melittin was performed by acquiring real-time data with continuous mixing of samples (10^6 MS-PPE in 800 μl of PBS) using a magnetic stirrer. The raw data were analyzed using IDL Query software developed by Bruce Edwards (Cancer Center, University of New Mexico, Albuquerque, N. Mex.).
Because an anionic lipid was used to form a lipid bilayer around MS-PPE, it was expected that MLT will disrupt the DMPG lipid bilayer by such a detergent-like action. This was tested by adding 10 μM AQS to DMPG-coated MS-PPE followed by treatment with one of the following: Triton X-100® detergent, synthetic MLT (sMLT), or natural MLT (nMLT) and immediately reading the fluorescence by flow cytometry. […] These histograms resemble the ones reported previously for MS-PPE, without a lipid coating, in absence and in presence of AQS.
The kinetics of disruption of supported lipid bilayer by MLT were monitored by measuring real-time changes in fluorescence intensity by flow cytometry (FIG. 19). Suspensions of 10^6 DMPG-coated MS-PPE in 800 μL of PBS were treated with AQS at a final concentration of 10 μM, then with either sMLT, Triton X-100® detergent, or no treatment. […] Treatment with sMLT in the absence of AQS led to an increase in normalized fluorescence (FIG. 19, trace A). This can be attributed to disruption of the lipid bilayer by sMLT, and is consistent with a reversal of the slight quenching of fluorescence caused by the formation of a DMPG lipid bilayer over MS-PPE. Addition of AQS alone to DMPG-coated MS-PPE (FIG. 19, trace C) led to a 20% reduction in fluorescence as reported earlier. Addition of Triton X-100® detergent to DMPG-coated MS-PPE after the addition of AQS (first dip in trace E, FIG. 19) caused immediate decrease in fluorescence to ˜10% of its original value (second dip in trace E, FIG. 19). In contrast, addition of sMLT, after the addition of AQS, (FIG. 19, trace D) led to a gradual reduction of fluorescence intensity to ˜20% of the original value. Although MLT forms dimers at high concentrations (Dempsey, C. E. Biochim. Biophys. Acta 1990, 1031, 143-161), it is monomeric at the concentrations used in this study. On the other hand, Triton X-100® detergent forms micelles at the concentration used in this study.

DMPG supported on MS-PPE = assay: Binding curves of MLT to DMPG supported on MS-PPE (superquenching flow cytometric assay); conditions: flow cytometry, 10 μM AQS
Procedure: FIGS. 18A-B show binding curves for MLT-disruption of supported lipid bilayer by natural MLT (nMLT; FIG. 18A), and synthetic MLT (sMLT; FIG. 18B). Fluorescence intensity was normalized to that without MLT as determined by flow cytometry. The error bars represent the standard deviation (SD) of the means of normalized histograms obtained for 3 replicates.
as §1
From FIG. 18, the association constant (corresponding to the reciprocal of the point of half saturation) for nMLT and sMLT with DMPG were 5×10^6 M^−1 and 1.7×10^6 M^−1, respectively. […] Lower concentrations of nMLT, in comparison to sMLT, were required to disrupt the DMPG lipid bilayer. This might be attributed to the fact that nMLT contains some phospholipase A2 (PLA2) as a contaminant. […]

[3] = test system: EPC bilayer on porous silica beads; assay: Suspension study: release of fluorescein dye from lipid bilayer coated porous silica beads; format: biochemical; conditions: all three concentrations 15, 45 and 250 μg/mL
Procedure: Lipid coatings on beads were disrupted using 10% Triton X-100. Each sample in micro-centrifuge tubes contained 5 mg of lipid bilayer coated, fluorescein entrapped beads in 200 μL of Tris buffer. Samples were centrifuged and 100 μL aliquots of supernatant were mixed with either 100 μL of Tris buffer or 100 μL of 10% Triton X-100® detergent in separate centrifuge tubes. The fluorescence intensity of each mixture was immediately (time=0) recorded. Each mixture was mixed with its respective bead sample in centrifuge tube and incubated at 25° C. in the dark. After 30 min, samples were centrifuged and fluorescent intensity of the supernatants was measured. Beads were resuspended in their respective supernatants. Fluorescence intensity was again measured at 90 and 150 min.
Experimental procedures were similar to the Triton X-100® detergent based analysis. For experiments with α-toxin, three different toxin concentrations: 15, 45 and 250 μg/mL were used at 37° C. and 25° C. Beads coated with EPC were used. In the experiments with melittin, 220 μM melittin was used with beads coated with either 100% EPC, 10:90 (molar ratio) mixture of DMPG and EPC or an 80:20 mixture of DMPG and DMPC. All melittin experiments were conducted at 25° C.
Previous suspension studies on disruption of lipid bilayers have been performed with small unilamellar vesicles where disruption of the lipid bilayer membranes was detected by monitoring the unquenching of a highly concentrated, encapsulated dye. In the present work disruption was monitored via release of fluorescein dye from porous beads, by measuring the increase in fluorescence intensity of the supernatant at 520 nm. Beads were first suspended in Tris buffer containing the disruptor. After selected time periods, beads were sedimented by centrifuging and a portion of the supernatant was taken for the measurement. The measured portion was added back to the bead sample to permit continuous monitoring. The scattering effect that was present in vesicle based studies was minimized by measuring only the supernatant after centrifugation of the beads.

EPC vesicles = conditions: incubation with α-toxin; cited from earlier work
[4] = test system: supported lipid bilayer surrounding a porous bead; assay: Kinetics of disruption of supported lipid bilayer by α-toxin, pH-reactive fluorescein in porous beads, flow cytometry; format: biochemical; conditions: pH outside 11.0, inside 2.6
Excerpt: FIGS. 4A-B illustrates the effects of alpha-toxin on lipid bilayer integrity. FIG. 4A graphically illustrates dose-dependent release of fluorescent dye from a lipid bilayer coated microbead after introduction of different concentrations of alpha-toxin, a membrane-associated pore-forming protein from Staphylococcus aureus. The normalized fluorescence intensity (at 520 nm) of the supernatant is plotted versus time for EPC-coated, fluorescein filled porous beads when using different concentrations of α-toxin added. 10% Triton was added after 150 min. FIG. 4B illustrates the kinetics of disrupting a supported lipid bilayer by α-toxin as monitored by recording changes in fluorescence intensity every 2 minutes by flow cytometry. The lipid bilayer surrounded a porous bead that contains a pH-reactive molecule (fluorescein), and the pH outside the beads was adjusted to 11.0, whereas inside the beads the pH was 2.6. As illustrated, increasing amounts of α-toxin increases the fluorescence emitted from within the beads.
In another experiment a lipid bilayer surrounding a porous bead that contains a pH-reactive molecule (fluorescein) was exposed to α-toxin. The pH outside the beads was adjusted to 11.0, whereas inside the beads the pH was 2.6. The kinetics of disruption of supported lipid bilayer by α-toxin were monitored by recording changes in fluorescence intensity every 2 minutes by flow cytometry. For the first 8 minutes there was no significant change in fluorescence intensity (FIG. 4B). However, after 8 minutes there was a gradual increase in fluorescence intensity (FIG. 4B) resulting from insertion of α-toxin into the supported lipid bilayer thus forming channels permeable to hydrogen cations and hydroxyl ions, which reduces the difference in the pH outside and inside the microspheres. […] This can be attributed to insertion of many α-toxin channels at this high concentration leading to disruption of the lipid bilayer and immediate equilibration of the pH inside and outside the porous microspheres.

| Substance | change in fluorescence intensity of bead segment [1] | quenching of the MS-PPE after treatment [2] | association constant (reciprocal of the point of half saturation) with DMPG (DMPG supported on MS-PPE) [M⁻¹] | increase in fluorescence intensity after 150 min ([3]; 25° C.) | increase in fluorescence intensity after 150 min ([3]; 37° C.) | dye encapsulated in EPC vesicles released (EPC vesicles) [%] | change in fluorescence intensity ([4]; 45 μg/mL) | concentration at which the increase in fluorescence intensity reached its maximum [4] [µg/mL] | time without significant change in fluorescence intensity before gradual increase ([4]; read every 2 minutes) [min] |
| --- | --- | --- | --- | --- | --- | --- | --- | --- | --- |
| nMLT: natural melittin from Sigma, contains some phospholipase A2 as a contaminant | slight rise in fluorescence intensity followed by a significant decrease | comparable to that occurring on addition of Triton X-100 | 5e+06 |  |  |  |  |  |  |
| α-toxin: membrane active pore-forming protein secreted by Staphylococcus aureus, ~33 kDa |  |  |  | about 3 fold | about 6.5 fold | 27 | did not cause a change in fluorescence intensity different from the baseline | 15 | 8 |
